# Assay results published in US9609868B2, “Alkoximino-substituted anthranilic acid diamides as pesticides” (BAYER CROPSCIENCE AKTIENGESELLSCHAFT, priority 2013, dated 2017).
# Key:
# [1] = test system: Phaedon cochleariae; assay: Phaedon cochleariae - spray test (PHAECO); type: in vivo; conditions: application rate 100 g/ha, Chinese cabbage leaf disks
# Protocol: Phaedon cochleariae—Spray Test (PHAECO)
# Solvent: 78.0 parts by weight of acetone • • 1.5 parts by weight of dimethylformamide
# (§1) Emulsifier: 0.5 parts by weight of alkylaryl polyglycol ether
# (§2) To produce a suitable active compound preparation, 1 part by weight of active compound is mixed with the stated amounts of solvent and emulsifier, and the concentrate is diluted with emulsifier-containing water to the desired concentration.
# After the desired period of time, the efficacy in % is determined. 100% means that all the beetle larvae have been killed; 0% means that no beetle larvae have been killed.
# [2] = log P by HPLC on reversed-phase column (C18), EEC directive 79/831 Annex V.A8; type: physicochemical; conditions: HPLC reversed-phase C18, 43° C., data refer to the E isomer
# Protocol: The log P values reported in the tables and Preparation Examples above were determined in accordance with EEC directive 79/831 Annex V.A8 by HPLC (High Performance Liquid Chromatography) using a reversed-phase column (C18). Temperature 43° C. The calibration is effected with unbranched alkan-2-ones (having 3 to 16 carbon atoms), for which the log P values are known.
# [3] = test system: Myzus persicae; assay: Myzus persicae - spray test (MYZUPE); type: in vivo; conditions: Chinese cabbage leaf disks
# Protocol: Myzus persicae—Spray Test (MYZUPE)
# Solvent: 78 parts by weight of acetone • • 1.5 parts by weight of dimethylformamide
# as §1, §2
# Disks of Chinese cabbage leaves (Brassica pekinensis) infested by all stages of the green peach aphid (Myzus persicae) are sprayed with an active compound preparation of the desired concentration.
# After the desired period of time, the efficacy in % is determined. 100% means that all the aphids have been killed; 0% means that none of the aphids have been killed.
# [4] = test system: Spodoptera frugiperda; assay: Spodoptera frugiperda - spray test (SPODFR); type: in vivo; conditions: application rate 100 g/ha, maize leaf disks
# Outline: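 Maize leaf disks sprayed with compound in acetone/DMF with alkylaryl polyglycol ether emulsifier, diluted in water to test concentration, then infested with armyworm caterpillars once dry. Efficacy given as % caterpillars killed (100% all, 0% none) after the chosen period.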
Compound,efficacy (beetle larvae killed) [1] [%],log p ([2]; Table C),efficacy (aphids killed) ([3]; application rate 100 g/ha) [%],efficacy (caterpillars killed) [4] [%],log p ([2]; Table A),efficacy (aphids killed) ([3]; application rate 20 g/ha) [%]
CON=Cc1cc(C)c(NC(=O)c2cc(OC)nn2-c2ncccc2Cl)c(C(=O)NC(C)C)c1 (mixture of isomers) [C-32],100,3.22,90,100,–,–
CNC(=O)c1cc(C=NOC)cc(C)c1NC(=O)c1cc(OC)nn1-c1ncccc1Cl (mixture of isomers) [C-33],100,2.70,90,100,–,–
CON=Cc1cc(C)c(NC(=O)c2cc(OC)nn2-c2ncccc2Cl)c(C(=O)NC(C)(C)C)c1 (mixture of isomers) [C-37],100,3.71,90,100,–,–
C#CCOC(=O)NNC(=O)c1cc(C=NOC)cc(C)c1NC(=O)c1cc(Br)nn1-c1ncccc1Cl [A-08],100,–,100,100,2.58,–
COCCOC(=O)NNC(=O)c1cc(C=NOC)cc(C)c1NC(=O)c1cc(C(F)(F)F)nn1-c1ncccc1Cl [A-20],100,–,90,100,2.74,–
C=CCOC(=O)NNC(=O)c1cc(C=NOC)cc(C)c1NC(=O)c1cc(C(F)(F)F)nn1-c1ncccc1Cl [A-21],100,–,90,100,3.04,–
CON=Cc1cc(C)c(NC(=O)c2cc(C(F)(F)F)nn2-c2ncccc2Cl)c(C(=O)NNS(C)(=O)=O)c1 [A-23],100,–,100,100,2.63,–
CON=Cc1cc(C)c(NC(=O)c2cc(C(F)(F)F)nn2-c2ncccc2Cl)c(C(=O)NC(C)CSC)c1 (centres unmarked) [C-05],100,3.72,100,100,–,–
CON=Cc1cc(C)c(NC(=O)c2cc(OC(C)C)nn2-c2ncccc2Cl)c(C(=O)NC(C)C)c1 [C-07],100,3.29,90,100,–,–
CON=Cc1cc(C)c(NC(=O)c2cc(OC(C)C)nn2-c2ncccc2Cl)c(C(=O)NC(C)C2CC2)c1 (centres unmarked) [C-08],100,3.65,90,100,–,–
CON=Cc1cc(C)c(NC(=O)c2cc(OC(C)C)nn2-c2ncccc2Cl)c(C(=O)NC(C)(C)C)c1 [C-09],100,3.74,100,100,–,–
CCOc1cc(C(=O)Nc2c(C)cc(C=NOC)cc2C(=O)NC)n(-c2ncccc2Cl)n1 [C-10],100,2.48,100,100,–,–
CCOc1cc(C(=O)Nc2c(C)cc(C=NOC)cc2C(=O)NC(C)(C)C)n(-c2ncccc2Cl)n1 [C-11],100,3.42,100,100,–,–
CON=Cc1cc(C)c(NC(=O)c2cc(OCC(F)F)nn2-c2ncccc2Cl)c(C(=O)NC2CC2)c1 [C-17],100,2.91,90,100,–,–
CON=Cc1cc(C)c(NC(=O)c2cc(OCC(F)F)nn2-c2ncccc2Cl)c(C(=O)NC(C)(C)C)c1 [C-21],83,3.43,100,100,–,–
CNC(=O)c1cc(C=NOC)cc(C)c1NC(=O)c1cc(OC)nn1-c1ncccc1Cl [C-22],100,2.15,100,100,–,–
CON=Cc1cc(C)c(NC(=O)c2cc(OC)nn2-c2ncccc2Cl)c(C(=O)NC2CC2)c1 [C-23],100,2.40,100,100,–,–
CON=Cc1cc(C)c(NC(=O)c2cc(OC)nn2-c2ncccc2Cl)c(C(=O)NC(C)C2CC2)c1 (centres unmarked) [C-25],100,3.02,100,100,–,–
CON=Cc1cc(C)c(NC(=O)c2cc(OC)nn2-c2ncccc2Cl)c(C(=O)NC(C)(C)C)c1 [C-26],100,3.06,100,100,–,–
CCOc1cc(C(=O)Nc2c(C)cc(C=NOC)cc2C(=O)NC(C)C2CC2)n(-c2ncccc2Cl)n1 (centres unmarked) [C-27],100,3.38,90,100,–,–
CON=Cc1cc(C)c(NC(=O)c2cc(C(F)F)nn2-c2ncccc2Cl)c(C(=O)NC(C)(C)C)c1 [C-35],100,3.34,90,100,–,–
CON=Cc1cc(C)c(NC(=O)c2cc(C(F)F)nn2-c2ncccc2Cl)c(C(=O)NC(C)C2CC2)c1 (centres unmarked) [C-36],100,3.29,90,100,–,–
CCNC(=O)c1cc(C=NOC)cc(C)c1NC(=O)c1cc(OC)nn1-c1ncccc1Cl [C-47],100,2.41,100,100,–,–
C#CCNC(=O)c1cc(C=NOC)cc(C)c1NC(=O)c1cc(OC)nn1-c1ncccc1Cl [C-48],100,2.40,100,100,–,–
CON=Cc1cc(C)c(NC(=O)c2cc(CF)nn2-c2ncccc2Cl)c(C(=O)NC(C)C)c1 [C-49],100,2.65,90,100,–,–
CCNC(=O)c1cc(C=NOC)cc(C)c1NC(=O)c1cc(CF)nn1-c1ncccc1Cl [C-53],100,2.39,90,100,–,–
COCCNC(=O)c1cc(C=NOC)cc(C)c1NC(=O)c1cc(CF)nn1-c1ncccc1Cl [C-56],100,2.27,–,100,–,90
C#CCNC(=O)c1cc(C=NOC)cc(C)c1NC(=O)c1cc(CF)nn1-c1ncccc1Cl [C-57],100,2.38,90,100,–,–
COCCNC(=O)c1cc(C=NOC)cc(C)c1NC(=O)c1cc(C(F)F)nn1-c1ncccc1Cl [C-59],100,2.53,90,100,–,–
